The values below come from the METLIN SMRT retention time set (Domingo-Almenara et al. 2019).

The data set in a line: gradient 5% acetonitrile 3 min, to 50% in 2 min, to 85% in 15 min, held 3 min, 100 µL/min. The note with it: column: Zorbax Extend-C18 2.1 x 50 mm; eluents: water / acetonitrile, 0.1% formic acid. The procedure, abridged:
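The mobile phases were water and acetonitrile, each with 0.1% formic acid, pumped at 100 μL/min through a Zorbax Extend-C18 column (2.1 × 50 mm, 1.8 μm). Pure standards were injected as mixtures of ~100 molecules and detected by a quadrupole time-of-flight mass spectrometer in positive and negative ionization mode. Retention time came from computationally picked adduct peaks, each inspected by hand.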
Compound `CC(=O)c1ccc(OC(=O)c2ccc3c(c2)C(=O)N(c2ccccc2)C3=O)cc1` gave an RP-LC retention time of 751 s.

Compound `CC(C)c1nc2c(c(=O)n1CC(=O)NCc1cccs1)CN(Cc1ccccc1)CC2` registered an RP-LC retention time of 650 s.

`CCOC(=O)CCC(=O)NCC1CN(c2ccc(Cl)c(Cl)c2)C(=O)O1` (centres undefined) registered an RP-LC retention time of 774 s.

`COc1cc(OC)cc(-n2nnc(-c3nsc(Nc4ccccc4OC)n3)c2C)c1` gave an RP-LC retention time of 1050 s.

The compound `Cc1ccc(CNC(=O)Cn2c(C)cc(-c3nnc(C4CCC4)o3)c2C)cc1C` returned an RP-LC retention time of 947 s.

In turn, `COc1ccc(CNC(=O)c2c(C)oc3ccn(C)c(=O)c23)cc1` showed an RP-LC retention time of 824 s.

Take `Cc1ccc(NC(=O)N2CCN(CCn3c(C(C)C)nc4cccnc43)CC2)c(C)c1`: the RP-LC retention time worked out at 621 s.

In turn, `CC(Oc1ccccc1)C(=O)N1CC(n2ccnc2)C1` (centres undefined) showed an RP-LC retention time of 584 s.

Regarding `CC(C)c1ccc(NC(=O)Cn2nc(N3CCOCC3)c3ccccc3c2=O)cc1`, the RP-LC retention time stood at 905 s.

In the case of `CNC(=O)Nc1cccnc1N1CCCCC1`, the RP-LC retention time amounted to 544 s.

Turning to `COc1ccc(CNC(=O)c2nc3ccccn3c2-c2ccsc2)cc1`, the RP-LC retention time stood at 810 s.

Consider `Cc1ccc(-c2nocc2CCC(=O)NCc2ccccc2)cc1`, for which the RP-LC retention time was 910 s.

As to `COc1ccc(C(CC(=O)NCCN2CCCC2)N2Cc3ccccc3C2=O)cc1OC` (centres undefined), the RP-LC retention time turned out to be 609 s.

Compound `COc1cccc(C(O)CN2CCN(c3cccc(C)c3C)CC2)c1` (centres undefined) returned an RP-LC retention time of 614 s.

As for `CCn1ccc(-c2nc(-c3ccc4c(c3)nnn4CCN3CCCCC3)no2)n1`, the RP-LC retention time was 623 s.

Take `CCCCOC(=O)C1=CN(Cc2ccccc2)S(=O)(=O)N=C1C`: the RP-LC retention time came out at 1080 s.

In turn, `O=C(NC1CCCC1)c1cccn1Cc1noc(-c2ccc(Cl)cc2)n1` came in with an RP-LC retention time of 1100 s.

Compound `CCCn1cc(C2=CCN(S(=O)(=O)Cc3ccccc3)CC2)c2cccnc21` yielded an RP-LC retention time of 1070 s.

With `COc1ccc(NC(=O)NCC23CCCC=C2NC(=O)CC3)cc1` (centres undefined), the RP-LC retention time turned out to be 593 s.

For the compound `COc1ccccc1-c1nc2cnccn2c1NCCC(=O)NC1CCCC1`, the RP-LC retention time was 618 s.

Consider `CCC(=O)Nc1ccc(CCc2nc3ccc(C(=O)NC(C)Cc4ccco4)cc3[nH]2)cc1` (centres undefined), for which the RP-LC retention time is 630 s.

`Cc1ccc(C)c(NC(=O)Nc2c(-c3ccc(F)cc3)nc3ccccn23)c1` registered an RP-LC retention time of 697 s.

Consider `Fc1cc(F)cc(-c2nnc(Cc3nc(-c4cccc(C(F)(F)F)c4)no3)o2)c1`, for which the RP-LC retention time worked out at 851 s.

As for `COc1ccc(-c2csc3ncnc(NCCN4CCOCC4)c23)cc1`, the RP-LC retention time turned out to be 569 s.

Compound `COc1ccc2c(c1)CC(C(=O)N1CCN(C(=O)c3ccco3)CC1)CO2` (centres undefined) came in with an RP-LC retention time of 725 s.

`CCC(C)c1ccccc1NC(=O)C1CCN(C(=O)C(C)(C)C)CC1` (centres undefined) had an RP-LC retention time of 829 s.

`CCc1nc2cc(-c3noc(-c4sccc4C)n3)ccc2o1` returned an RP-LC retention time of 1210 s.

With `O=C(C1=NN(Cc2cccc(F)c2)c2ccc(Cl)cc2S1(=O)=O)N1CCOCC1`, the RP-LC retention time turned out to be 875 s.

Compound `CC(C)(NC(=O)C1CCCO1)c1nc2c(c(C(N)=O)n1)OCO2` (centres undefined) displayed an RP-LC retention time of 563 s.

As to `CC(=O)Nc1cccc(-c2nc(-c3ccc4nnn(C(C)C)c4c3)no2)c1`, the RP-LC retention time came out at 859 s.

`CC1=C(c2ccc(C)c(C)c2)S(=O)(=O)N=C1N1CCC(C(=O)NCCc2ccco2)CC1` had an RP-LC retention time of 884 s.

`CSc1cccc(NC(=O)C2CC(=O)N(c3ccc4c(c3)CCN4C(C)=O)C2)c1` (centres undefined) gave an RP-LC retention time of 730 s.

Turning to `Cn1c(=O)c2c(-c3ccc(F)cc3)c(C#N)c(N)nc2n(C)c1=O`, the RP-LC retention time was 757 s.

With `COc1ccc(-c2nc(NC(=O)CS(=O)(=O)c3ccc(C)cc3)sc2C)cc1`, the RP-LC retention time is 1010 s.

For `O=C(Cc1csc2nc(-c3ccccc3)cn12)N1CCc2ccccc2C1`, the RP-LC retention time is 826 s.

On to `COc1cccc(CNC(=O)Cn2ncc3c(c2=O)N(C2CC2)C(=O)CS3)c1`, for which the RP-LC retention time turned out to be 671 s.

`CCc1nc2cc(-c3noc(/C=C/c4ccc(C)o4)n3)ccc2o1` had an RP-LC retention time of 1180 s.

`CCc1ccc(NC(=O)N2CCN(CCn3c(CC)nc4cccnc43)CC2)cc1`: the RP-LC retention time was 632 s.

`CCn1ncc(NC(=O)COc2ccccc2C)c(N2CCOCC2)c1=O`: the RP-LC retention time was 889 s.

`Cc1ccc(-c2nnc(-c3cccnc3NCCCN3CCOCC3)o2)cc1` returned an RP-LC retention time of 690 s.

The compound `CCN(CC)C(=O)N1CCC2(CC1)CC(N1CCN(c3ccccc3)CC1)CCO2` (centres undefined) came in with an RP-LC retention time of 582 s.

In the case of `Cc1c(Cl)cccc1NC(=O)N1CCc2c(c(COc3ccccc3)nn2C)C1`, the RP-LC retention time stood at 891 s.

`CN(C)CCCN1c2ccccc2Sc2ccc3ccccc3c21` displayed an RP-LC retention time of 772 s.

As to `CCCCNC(=O)c1ccc(-n2ccnc2SCC(=O)Nc2ccccc2)cc1`, the RP-LC retention time was 746 s.

In turn, `O=C(NCc1ccco1)N1CCN(Cc2nc3cccnc3n2-c2ccccc2)CC1` yielded an RP-LC retention time of 620 s.

In the case of `CC(=O)Nc1ccc(C2(C(=O)NCc3ccc(F)cc3Cl)CCC2)cc1`, the RP-LC retention time was 804 s.

For `Cc1noc(COC2CCCN(C(=O)c3ccc4cc[nH]c4c3)C2)n1` (centres undefined), the RP-LC retention time stood at 570 s.

In turn, `CC(=O)N1CCc2[nH]c3ccc(C(=O)NCc4ccc(N5CCCC5)cc4)cc3c2C1` returned an RP-LC retention time of 1120 s.

With `Cc1c(Br)cncc1C(=O)O`, the RP-LC retention time was 620 s.

For the compound `CCN(CC)C(=O)N1CCCC1Cc1noc(-c2cccnc2)n1` (centres undefined), the RP-LC retention time was 712 s.

`CCc1ccc(NC(=O)Cn2c(=O)c3cc(C)nn3c3ncccc32)cc1` came in with an RP-LC retention time of 786 s.

In turn, `O=C(NCCn1nnc2cc(C(=O)N3CCCC3)ccc21)Nc1ccc(F)c(Cl)c1` showed an RP-LC retention time of 704 s.

Turning to `Cc1cccc(N2CCN(c3cc(C(=O)O)c4cc(NC(=O)C5CCC5)ccc4n3)CC2)c1C`, the RP-LC retention time amounted to 777 s.

In turn, `c1ccc(CNc2nc(NCc3ccccc3)c3ccccc3n2)cc1` gave an RP-LC retention time of 796 s.

`Cc1ccc(C)c(Cn2nc3c(S(=O)(=O)N4CCc5ccccc5C4)cccn3c2=O)c1` gave an RP-LC retention time of 1070 s.

`CC(=O)[C@@]1(O)CC[C@H]2[C@@H]3C[C@H](C)C4=CC(=O)C=C[C@]4(C)[C@@]3(F)[C@@H](O)C[C@@]21C` gave an RP-LC retention time of 844 s.

On to `O=S(=O)(c1ccccc1)N1CC(n2cnnc2-c2ccccc2)C1`, for which the RP-LC retention time amounted to 641 s.

`CCOc1cccc(C2c3[nH]c4ccccc4c3CCN2C(=O)c2ccco2)c1` (centres undefined): the RP-LC retention time amounted to 1130 s.

On to `Cc1ccsc1C(=O)Nc1cccc(-c2nnc3n2CCCC3)c1`, for which the RP-LC retention time was 640 s.

As for `N#Cc1cccc(C(=O)N2CCc3cc(-c4ccno4)ccc32)c1`, the RP-LC retention time stood at 724 s.

`COc1ccc(-n2c(=O)n(C)c(=O)c3cc(C(=O)Nc4ccc(C(N)=O)cc4)cnc32)cc1`: the RP-LC retention time came to 668 s.

In the case of `CC1=C(c2ccccc2)S(=O)(=O)N=C1N1CCCN(C(=O)CC2CCCC2)CC1`, the RP-LC retention time stood at 861 s.

`CCc1nc(-c2cc(S(=O)(=O)Nc3cc(F)ccc3Cl)c(C)s2)cs1` gave an RP-LC retention time of 1160 s.

Regarding `COc1ccc(-c2noc(Cn3nc(-c4ccccc4)ccc3=O)n2)cc1`, the RP-LC retention time was 953 s.

For the compound `Cc1noc(C)c1CCC(=O)N1CCc2nn(CC#N)c(=O)n2CC1`, the RP-LC retention time came to 630 s.

Consider `Cn1nc(C(=O)N2CCCC(C(=O)NC3CC3)C2)c2c1CCN(C(=O)c1ccc(F)cc1)C2` (centres undefined), for which the RP-LC retention time was 633 s.

`CC1Oc2ccc(S(=O)(=O)N3CCC(C(=O)Nc4ccc(C(C)C)cc4)CC3)cc2NC1=O` (centres undefined): the RP-LC retention time amounted to 916 s.

`COc1ccc(OC)c(CNC(=O)Cn2cc(-c3nnco3)c3ccccc32)c1` gave an RP-LC retention time of 765 s.

`O=C(NCC(O)(c1ccccc1)C(F)(F)F)c1ccc2nsnc2c1` (centres undefined) returned an RP-LC retention time of 853 s.

For the compound `Cc1cc(NC(=O)N2CCC(n3cnc4cccnc43)CC2)ccc1Br`, the RP-LC retention time came to 684 s.

Take `O=c1n(Cc2ccccc2)nc2c(-c3nc(-c4ccccc4)no3)cccn12`: the RP-LC retention time is 984 s.

`COc1ccc(CCC(=O)N(C)CCc2noc(COc3ccc(OC)cc3)n2)cc1` displayed an RP-LC retention time of 911 s.

For `CCNc1cc(N2CCCC(CCC(=O)Nc3ccc(OCC)cc3)C2)ncn1` (centres undefined), the RP-LC retention time was determined as 699 s.

For `NC(=O)c1c(NC(=O)CSc2ncnc3sc4c(c23)CCC4)sc2c1CCC2`, the RP-LC retention time was 1100 s.

`COc1cc(OC)cc(C(=O)N2CCN(c3cc(-c4cccnc4)[nH]n3)CC2)c1` displayed an RP-LC retention time of 570 s.

In the case of `Cn1ncc2c3ccccc3n(CCCC(=O)N3CCCCC3)c2c1=O`, the RP-LC retention time is 824 s.

As for `CCOC(=O)C1CCN(c2nc(=O)n(CC(=O)Nc3ccc(C)cc3)c3ccccc23)CC1`, the RP-LC retention time turned out to be 843 s.

Take `CCOC(=O)c1c(C)[nH]c2cc(Br)c(O)cc12`: the RP-LC retention time was 768 s.

As to `COc1ccccc1CCC(=O)N1CCN(c2cc(-c3cccs3)[nH]n2)CC1`, the RP-LC retention time worked out at 838 s.
